Data on two compounds can be found in patent US5348980A, “Enantiomers derived from (S)-2-amino-2-(3,4-dichlorobenzyl)-1-propanol, their use and method of preparation” (Institute de Recherche Jouveinal, priority 1992, dated 1994).

Counter-ions that a name gives are not always drawn.

The assay concerns bronchoconstriction caused by 100 nmol/kg of histamine. Nature of the assay: Histamine-induced bronchoconstriction test (Konzett and Rossler), intranasal-powder (In.P.) administration. The format is in vivo, guinea pigs. The source says: Furthermore, the antihistaminic properties were studied in guinea pigs by the bronchoconstriction test performed according to the method of H. Konzett and R. Rossler (Arch. Exp. Path. Pharmak.--Naunym Schmiedeberg - 195, 71-74, 1940). The products of the invention were studied in this test after administration in solution or in suspension via the intravenous and intraduodenal routes, and also in powder form via the intranasal route. Irrespective of the administration route, the preparation of the animals employed in the test consists in first anesthetizing male guinea pigs weighing 350 to 400 g by intraperitoneal (i.p.) injection of a sterile and isotonic solution containing 25% (w/v.) of ethyl carbamate on the basis of 6.0 ml/kg, and in then fitting the animals with a tracheal cannula to permit measurement of the pulmonary pressure, a cannula in the right jugular vein for the intravenous (i.v.) administration of solution, and also a cannula in the left carotid artery for qualitative observation of the blood pressure. The animals are then connected to a pump (Harvard, ref. 50-1718) in order to maintain an artificial ventilation at a frequency of 60 insufflations per minute; the intratracheal pressure is recorded by an assembly comprising a transducer, an amplifier and a recorder (Gould, respective refs.: PLOEZ, 13-4615-50 and 8188-[…]-06). Fitted in this way, the animals are left undisturbed for 10 minutes before the beginning of the actual experiment, which is carried out in different ways according to the administration route envisaged. c) intranasal-powder (In.p) administration The test product is administered via a nasal insufflation of a powder consisting of 20 mg of lactose loaded with the appropriate quantity of the test product. Before this insufflation, the artificial ventilation of the animal is momentarily stopped in order to facilitate the pulmonary penetration of the compound. […] Failing this expression, the results are expressed as a % change at the time in question and for a given concentration of the test product. […]

On to `C=CCN(C)[C@](C)(CO)Cc1ccc(Cl)c(Cl)c1` [Example 2, base, (S)-(+)-N-allyl-2-methylamino-2-(3,4-dichlorobenzyl)-1-propanol], for which the ED50 (Cavia porcellus, 5 min, t = 5 min, read-out: ED50 at t = 5 min, inhibition of histamine-induced bronchoconstriction) was determined as 1.28 µmol/kg.

`C=CCN(C)[C@](C)(CO)Cc1ccc(Cl)c(Cl)c1` [Example 2, hydrochloride, (S)-(+)-N-allyl-2-methylamino-2-(3,4-dichlorobenzyl)-1-propanol]: the “ED50 at t = 5 min, inhibition of histamine-induced bronchoconstriction” value turned out to be 1.77 µmol/kg.

For orientation: ED50 means the dose at which the effect has come halfway, by size or by number of responders.
